Values quoted from earlier work, collected in patent publication US20190374622A1, “COMPOSITION AND METHOD FOR CO-ADMINISTRATION WITH A GROWTH PROMOTANT” (OmniGen Research, LLC, priority 2014, published 2019).
Counter-ions that a name gives are not always drawn. Like-named read-outs stand apart in the source and are kept apart here.

How the values were obtained:
[1] = cited from earlier work
[2] = cattle, cited from earlier work
[3] = finishing swine; cited from earlier work
[4] = cited from earlier work; for increase in average daily weight gain: last 2 weeks
[5] = 300 mg per head per day, vs cattle that did not receive it

| SMILES | improvement of feed efficiency ([1]; cattle, administered as Zilmax, one study (Intervet/Schering Plough 2010)) [%] | number of Yield Grade 4 and 5 cattle [1] | percentage of Yield Grade 1 cattle [1] | increase in hot carcass weight [2, 5] [pounds] | increase in live weight [2, 5] [pounds] | carcass leanness and yield grade [2] | carcass quality, as measured by marbling score and quality grade [2] | better feed efficiency [3] [%] | fat-free lean gain [3] | increase in average daily gain [3] [%] | increase in carcass weights [3] [pounds] | meat quality [3] | increase in average daily weight gain ([4]; hens) [%] | increase in average daily weight gain ([4]; toms) [%] | meat quality, including pH, color and tenderness ([4]; turkeys) |
| --- | --- | --- | --- | --- | --- | --- | --- | --- | --- | --- | --- | --- | --- | --- | --- |
| CC(C)NC1CCn2c(=O)[nH]c3cccc(c32)C1O (stereo not drawn) [Zilpaterol hydrochloride, 4,5,6,7-tetrahydro-7-hydroxy-6-(isopropylamino)imidazo[4,5,1-jk][1]benzazepin-2(1H)-one] | 3 | cut | increase |  |  |  |  |  |  |  |  |  |  |  |  |
| CC(CCc1ccc(O)cc1)NCC(O)c1ccc(O)cc1 (racemic) [Ractopamine hydrochloride, 4-[3-[[2-hydroxy-2-(4-hydroxyphenyl)ethyl]amino]butyl]phenol] |  |  |  | 20 | 22 | improves | no effect | 10 | improve | 10 | 5 | not affecting | 19 | 13 | no effect |
